According to PubChem BioAssay AID624167 (Sanford-Burnham Center for Chemical Genomics, 2012):
Calls of active or inactive are those of the source.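 The calls were made as follows: active = mean IC50 for reducing PEG3 promoter reporter signal at or below a set limit, with IC50 above the limit in both counter screens; inactive = the rest, including counter screen hits.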

Legend:
PEG-3 [1] = target: PEG-3 (UniProt Q6IN02); assay: inhibition of PEG-3 promoter-driven reporter – cell-based, HeLa, luciferase, CREF/GAPDH counter-screen panel, dose response (AID 624167); settings: HeLa PEG-Prom luciferase reporter, overnight, CREF/GAPDH counter-screens, mean of runs
Chain of PEG-3 (UniProt Q6IN02) (Q6IN02 whole entry, looked up): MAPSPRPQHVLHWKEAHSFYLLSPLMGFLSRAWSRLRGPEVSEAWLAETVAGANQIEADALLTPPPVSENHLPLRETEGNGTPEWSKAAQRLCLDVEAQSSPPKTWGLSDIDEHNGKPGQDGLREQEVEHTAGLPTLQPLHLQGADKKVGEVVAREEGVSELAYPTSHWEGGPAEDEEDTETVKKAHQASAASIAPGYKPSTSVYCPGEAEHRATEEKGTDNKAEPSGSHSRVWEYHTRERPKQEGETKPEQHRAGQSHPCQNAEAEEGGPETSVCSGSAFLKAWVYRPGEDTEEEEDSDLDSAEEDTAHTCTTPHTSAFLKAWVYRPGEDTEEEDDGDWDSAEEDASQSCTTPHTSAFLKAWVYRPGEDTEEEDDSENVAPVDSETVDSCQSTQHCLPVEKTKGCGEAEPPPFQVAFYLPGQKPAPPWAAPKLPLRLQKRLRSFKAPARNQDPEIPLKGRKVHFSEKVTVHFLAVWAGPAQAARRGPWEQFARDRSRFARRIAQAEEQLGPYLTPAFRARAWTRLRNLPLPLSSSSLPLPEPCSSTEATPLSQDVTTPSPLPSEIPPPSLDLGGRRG

PEG-3 [2] = assay: as above; settings: HeLa PEG-Prom luciferase reporter, overnight, CREF/GAPDH counter-screens
[3] = run 1, dose range 1, individual replicate IC50 per panel
[4] = run 2, dose range 1, individual replicate IC50 per panel

Structure (SMILES)	IC50 (PEG-3 [1])	IC50 (PEG-3 [2]; [3]) [µM]	IC50 (PEG-3 [2]; [4]) [µM]
COc1ccccc1C1c2ccc3ccccc3c2Oc2ncn(CCCO)c(=N)c21 (centres undefined)	15.8 µM	17.4	14.2
Cc1cc(Sc2ncnc(N)c2[N+](=O)[O-])ncn1	15.2 µM	18.7	11.7
CCCc1cc(=O)n2[nH]c(C)c(-c3ccc(Cl)cc3)c2n1	12.9 µM	14	11.8
COc1ccc(CC(N)c2csc(NC(=O)Nc3cc(OC)ccc3OC)n2)cc1 (centres undefined)	16 µM	16.5	15.6
C/C(=N\N=C(N)N)c1ccc(Cl)cc1Cl	18 µM	18.7	17.2
COc1ccc(-c2cc(C(=O)Nc3ccccc3N3CCOCC3)c3ccccc3n2)cc1OC	> 100 µM (inactive)	> 100	> 100
CC(=O)Nc1cccc(NC(=O)c2cc(-c3cccnc3)nc3ccc(Cl)cc23)c1	inactive	50.2	59.2
COc1cc(CNC(C)(C)CO)cc(Br)c1OCc1ccc(Cl)cc1	16.6 µM	20.6	12.6
CC(C)CC(N)c1csc(NC(=O)Nc2ccccc2C(C)(C)C)n1 (centres undefined)	inactive	22.7	18.2
CC1=C(CC[C@@H](C)CO)OC2CC3C4CCC5CC(O)CCC5(C)C4CC(=O)C3(C)C12 (some centres undefined)	inactive	24.7	64.2
O=C1/C(=C\c2cccc(O)c2O)SC(=S)N1Cc1ccccc1	inactive	14.1	30.1
Cc1ccc(N2CC(C(=O)Nc3nccs3)CC2=O)cc1Cl (centres undefined)	inactive	33	10.5
CC(=O)N1CCN(c2cc(-c3ccccc3)nc3cc(-c4cccc(Cl)c4)nn23)CC1	inactive	23.8	18.3
COC(=O)C1=C(C(=O)OC)C(C(=O)OC)C(C(=O)OC)C(C(=O)OC)(C(=O)OC)C(C(=O)OC)=C1C(=O)OC (centres undefined)	13.8 µM	16.9	10.7
c1ccc(CN=C(NCc2ccccc2)NCc2ccccc2)cc1	inactive	23.4	41.9
COc1cc(OC)c(OC)cc1CCC(C)NCCC(c1ccccc1)c1ccccc1 (centres undefined)	18.4 µM	20.3	16.5
O=c1c2ccccc2nc(CSc2ncnc3nc[nH]c23)n1-c1ccc(Cl)c(Cl)c1	inactive	8.77	> 100

Structure (SMILES)	IC50 (PEG-3 [1])	IC50 (PEG-3 [2]; [3]) [µM]	IC50 (PEG-3 [2]; [4]) [µM]
C[C@@H]1O[C@@H](O[C@@H]2C=C3CCC4C(CC[C@]5(C)[C@@H](c6ccc(=O)oc6)CC[C@]45O)[C@@]3(C)CC2)[C@H](O)[C@H](O)[C@H]1O (some centres undefined)	0.45 µM	0.709	< 0.2
Oc1cccc(C(Nc2nccs2)c2ccc3cccnc3c2O)c1 (centres undefined)	inactive	> 100	31.1
CC(C)(C)c1ccc(/C=N/Nc2ccc(C(=O)O)cc2)cc1	inactive	36.7	28
Cc1nn(C(C)(C)C)c(C)c1/C=N/OC(=O)Nc1ccc(Cl)cc1	3.17 µM	6.13	< 0.2
CCCN(CC(=O)Nc1cc(Cl)cc(Cl)c1)CC(=O)Nc1ccc(F)c(F)c1F	inactive	14.6	43.7
CCc1ccc(OCCNc2cc(N3CCNC(C)C3)ccc2[N+](=O)[O-])cc1 (centres undefined)	12.7 µM	16.3	8.98
Cc1cc(Cl)n2ncc(-c3ccccc3)c2n1	inactive	40.1	> 100
Cc1ccc(C(=O)N2CCN(c3ccc([N+](=O)[O-])c(NCc4cccnc4)c3)CC2)cc1	16.7 µM	10.6	22.7
O/N=C(\c1ccc(Cl)cc1Cl)c1ncc(C(F)(F)F)cc1Cl	inactive	32.4	29.9
Cc1[nH]c2ccc(OC(F)(F)F)cc2c1CCNCc1cccc([N+](=O)[O-])c1	inactive	25.1	> 100
CCOc1ccc2[nH]c3c(NCCc4ccc(OC)c(OC)c4)ncnc3c2c1	inactive	46.3	> 100
CC(C)(C)n1nnnc1C(CCc1ccccc1)N1CCC(n2c(=O)[nH]c3ccccc32)CC1 (centres undefined)	inactive	18.3	24.7
CC(C)c1ccc(NC(=O)Nc2nc(C(C)N)cs2)cc1 (centres undefined)	17 µM	20.1	13.8
O=C(/C=C/c1cc(Br)ccc1O)c1ccco1	12.3 µM	16.1	8.44
Cc1cc2sc3ccc(C#CC4(O)CCCCC4)cc3c(=O)c2cc1C	0.265 µM	0.265	< 0.2
O=C(Nc1cccc(-c2cccc(Cl)c2)c1)C1CCN(C2CCC2)CC1	16.9 µM	18.9	14.9
